Measurements: PubChem BioAssay AID1259407 (Chemical Carcinogenesis Research Information System (CCRIS), 2018)
Active and inactive are the calls of the source. No rule for the calls is given here.

Tested on: CCRIS mutagenicity, Ames/micronucleus/aberration tests
Assay: CCRIS mutagenicity studies

Measured: mutagenic call

Cc1ccc(Cl)cc1
inactive: Test System: AMES SALMONELLA TYPHIMURIUM, Strain/Indicator: TA97, Metabolic Activation: HAMSTER, LIVER, S-9, AROCLOR 1254 (10%), Method: PREINCUBATION inactive; negative | Test System: AMES SALMONELLA TYPHIMURIUM, Strain/Indicator: TA97, Metabolic Activation: HAMSTER, LIVER, S-9, AROCLOR 1254 (30%), Method: PREINCUBATION inactive; negative | Test System: AMES SALMONELLA TYPHIMURIUM, Strain/Indicator: TA97, Metabolic Activation: NONE, Method: PREINCUBATION inactive; negative | Test System: AMES SALMONELLA TYPHIMURIUM, Strain/Indicator: TA97, Metabolic Activation: RAT, LIVER, S-9, AROCLOR 1254 (10%), Method: PREINCUBATION inactive; negative | Test System: AMES SALMONELLA TYPHIMURIUM, Strain/Indicator: TA97, Metabolic Activation: RAT, LIVER, S-9, AROCLOR 1254 (30%), Method: PREINCUBATION inactive; negative | Test System: AMES SALMONELLA TYPHIMURIUM, Strain/Indicator: TA98, Metabolic Activation: HAMSTER, LIVER, S-9, AROCLOR 1254 (10%), Method: PREINCUBATION inactive; negative | Test System: AMES SALMONELLA TYPHIMURIUM, Strain/Indicator: TA98, Metabolic Activation: HAMSTER, LIVER, S-9, AROCLOR 1254 (30%), Method: PREINCUBATION inactive; negative | Test System: AMES SALMONELLA TYPHIMURIUM, Strain/Indicator: TA98, Metabolic Activation: NONE, Method: PREINCUBATION inactive; negative | Test System: AMES SALMONELLA TYPHIMURIUM, Strain/Indicator: TA98, Metabolic Activation: RAT LIVER S-9, PHENOBARBITAL AND BETA-NAPHTHOFLAVONE, Method: PREINCUBATION inactive; negative | Test System: AMES SALMONELLA TYPHIMURIUM, Strain/Indicator: TA98, Metabolic Activation: RAT, LIVER, S-9, AROCLOR 1254 (10%), Method: PREINCUBATION inactive; negative | Test System: AMES SALMONELLA TYPHIMURIUM, Strain/Indicator: TA98, Metabolic Activation: RAT, LIVER, S-9, AROCLOR 1254 (30%), Method: PREINCUBATION inactive; negative | Test System: AMES SALMONELLA TYPHIMURIUM, Strain/Indicator: TA100, Metabolic Activation: HAMSTER, LIVER, S-9, AROCLOR 1254 (10%), Method: PREINCUBATION inactive; negative | Test System: AMES SALMONELLA TYPHIMURIUM, Strain/Indicator: TA100, Metabolic Activation: HAMSTER, LIVER, S-9, AROCLOR 1254 (30%), Method: PREINCUBATION inactive; negative | Test System: AMES SALMONELLA TYPHIMURIUM, Strain/Indicator: TA100, Metabolic Activation: NONE, Method: PREINCUBATION inactive; negative | Test System: AMES SALMONELLA TYPHIMURIUM, Strain/Indicator: TA100, Metabolic Activation: RAT LIVER S-9, PHENOBARBITAL AND BETA-NAPHTHOFLAVONE, Method: PREINCUBATION inactive; negative | Test System: AMES SALMONELLA TYPHIMURIUM, Strain/Indicator: TA100, Metabolic Activation: RAT, LIVER, S-9, AROCLOR 1254 (10%), Method: PREINCUBATION inactive; negative | Test System: AMES SALMONELLA TYPHIMURIUM, Strain/Indicator: TA100, Metabolic Activation: RAT, LIVER, S-9, AROCLOR 1254 (30%), Method: PREINCUBATION inactive; negative | Test System: AMES SALMONELLA TYPHIMURIUM, Strain/Indicator: TA102, Metabolic Activation: NONE, Method: PREINCUBATION inactive; negative | Test System: AMES SALMONELLA TYPHIMURIUM, Strain/Indicator: TA102, Metabolic Activation: RAT LIVER S-9, PHENOBARBITAL AND BETA-NAPHTHOFLAVONE, Method: PREINCUBATION inactive; negative | Test System: AMES SALMONELLA TYPHIMURIUM, Strain/Indicator: TA104, Metabolic Activation: NONE, Method: PREINCUBATION inactive; negative | Test System: AMES SALMONELLA TYPHIMURIUM, Strain/Indicator: TA104, Metabolic Activation: RAT LIVER S-9, PHENOBARBITAL AND BETA-NAPHTHOFLAVONE, Method: PREINCUBATION inactive; negative | Test System: AMES SALMONELLA TYPHIMURIUM, Strain/Indicator: TA1535, Metabolic Activation: HAMSTER, LIVER, S-9, AROCLOR 1254 (10%), Method: PREINCUBATION inactive; negative | Test System: AMES SALMONELLA TYPHIMURIUM, Strain/Indicator: TA1535, Metabolic Activation: HAMSTER, LIVER, S-9, AROCLOR 1254 (30%), Method: PREINCUBATION inactive; negative | Test System: AMES SALMONELLA TYPHIMURIUM, Strain/Indicator: TA1535, Metabolic Activation: NONE, Method: PREINCUBATION inactive; negative | Test System: AMES SALMONELLA TYPHIMURIUM, Strain/Indicator: TA1535, Metabolic Activation: RAT LIVER S-9, PHENOBARBITAL AND BETA-NAPHTHOFLAVONE, Method: PREINCUBATION inactive; negative | Test System: AMES SALMONELLA TYPHIMURIUM, Strain/Indicator: TA1535, Metabolic Activation: RAT, LIVER, S-9, AROCLOR 1254 (10%), Method: PREINCUBATION inactive; negative | Test System: AMES SALMONELLA TYPHIMURIUM, Strain/Indicator: TA1535, Metabolic Activation: RAT, LIVER, S-9, AROCLOR 1254 (30%), Method: PREINCUBATION inactive; negative | Test System: AMES SALMONELLA TYPHIMURIUM, Strain/Indicator: TA1537, Metabolic Activation: HAMSTER, LIVER, S-9, AROCLOR 1254 (30%), Method: PREINCUBATION inactive; negative | Test System: AMES SALMONELLA TYPHIMURIUM, Strain/Indicator: TA1537, Metabolic Activation: NONE, Method: PREINCUBATION inactive; negative | Test System: AMES SALMONELLA TYPHIMURIUM, Strain/Indicator: TA1537, Metabolic Activation: RAT LIVER S-9, PHENOBARBITAL AND BETA-NAPHTHOFLAVONE, Method: PREINCUBATION inactive; negative | Test System: AMES SALMONELLA TYPHIMURIUM, Strain/Indicator: TA1537, Metabolic Activation: RAT, LIVER, S-9, AROCLOR 1254 (30%), Method: PREINCUBATION inactive; negative | Test System: E.COLI, Strain/Indicator: WP2UVRA/PKM101, Metabolic Activation: NONE, Method: PREINCUBATION inactive; negative | Test System: E.COLI, Strain/Indicator: WP2UVRA/PKM101, Metabolic Activation: RAT LIVER S-9, PHENOBARBITAL AND BETA-NAPHTHOFLAVONE, Method: PREINCUBATION inactive; negative | Test System: E.COLI, Strain/Indicator: WP2UVRA, Metabolic Activation: NONE, Method: PREINCUBATION inactive; negative | Test System: E.COLI, Strain/Indicator: WP2UVRA, Metabolic Activation: RAT LIVER S-9, PHENOBARBITAL AND BETA-NAPHTHOFLAVONE, Method: PREINCUBATION inactive; negative

CC(C)C[C@@H]1NC(=O)[C@H](C)N(C)C(=O)CNC(=O)/C(=C/c2ccccc2)N(C)C1=O
inactive: Test System: AMES SALMONELLA TYPHIMURIUM, Strain/Indicator: TA98, Metabolic Activation: NONE, Method: STANDARD PLATE inactive; negative | Test System: AMES SALMONELLA TYPHIMURIUM, Strain/Indicator: TA98, Metabolic Activation: RAT LIVER S-9, AROCLOR 1254, Method: STANDARD PLATE inactive; negative | Test System: AMES SALMONELLA TYPHIMURIUM, Strain/Indicator: TA100, Metabolic Activation: NONE, Method: STANDARD PLATE inactive; negative | Test System: AMES SALMONELLA TYPHIMURIUM, Strain/Indicator: TA100, Metabolic Activation: RAT LIVER S-9, AROCLOR 1254, Method: STANDARD PLATE inactive; negative | Test System: Ames Salmonella typhimurium, Strain/Indicator: TA97, Metabolic Activation: None, Method: Standard plate inactive; negative. nitrosation did not increase mutagenicity | Test System: Ames Salmonella typhimurium, Strain/Indicator: TA97, Metabolic Activation: Rat, Liver, S-9, Aroclor 1254 (10%), Method: Standard plate inactive; negative. nitrosation did not increase mutagenicity | Test System: Ames Salmonella typhimurium, Strain/Indicator: TA102, Metabolic Activation: None, Method: Standard plate inactive; negative. nitrosation did not increase mutagenicity | Test System: Ames Salmonella typhimurium, Strain/Indicator: TA102, Metabolic Activation: Rat, Liver, S-9, Aroclor 1254 (10%), Method: Standard plate inactive; negative. nitrosation did not increase mutagenicity | Test System: Ames Salmonella typhimurium, Strain/Indicator: TA104, Metabolic Activation: None, Method: Standard plate inactive; negative. nitrosation did not increase mutagenicity | Test System: Ames Salmonella typhimurium, Strain/Indicator: TA104, Metabolic Activation: Rat, Liver, S-9, Aroclor 1254 (10%), Method: Standard plate inactive; negative. nitrosation did not increase mutagenicity
